Measurements as given in PubChem BioAssay (NCI).
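Following 48 hours of exposure in 96-well plates, responses at five concentrations were used to interpolate endpoints linearly. GI50 = concentration required for 50% inhibition of growth. TGI marks complete inhibition of growth.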

Key:
Test in all cases: NCI tumour cell line growth inhibition, 48 h
HOP-92 NSCLC = tested on: HOP-92 NSCLC
M14 melanoma = tested on: M14 melanoma
OVCAR-3 ovarian = tested on: OVCAR-3 ovarian
OVCAR-4 ovarian = tested on: OVCAR-4 ovarian
SF-268 CNS = tested on: SF-268 CNS
SK-MEL-2 melanoma = tested on: SK-MEL-2 melanoma
SK-MEL-28 melanoma = tested on: SK-MEL-28 melanoma
SW-620 colon = tested on: SW-620 colon
HS 578T breast = tested on: HS 578T breast
MDA-MB-231 breast = tested on: MDA-MB-231 breast

## CC(=O)O.CC(=O)O.CC(=O)O.CC(=O)O.CC(=O)O.CC(=O)O.O.[Ti].[Ti]
HOP-92 NSCLC
  GI50: > 100 µM
  TGI: > 100 µM
M14 melanoma
  GI50: > 100 µM
  TGI: > 100 µM
OVCAR-3 ovarian
  GI50: > 100 µM
  TGI: > 100 µM
OVCAR-4 ovarian
  GI50: > 100 µM
  TGI: > 100 µM
SF-268 CNS
  GI50: > 100 µM
  TGI: > 100 µM
SK-MEL-2 melanoma
  GI50: > 100 µM
  TGI: > 100 µM
SK-MEL-28 melanoma
  GI50: > 100 µM
  TGI: > 100 µM
SW-620 colon
  GI50: > 100 µM
  TGI: > 100 µM

## CC(C)(C)OC(=O)NCC(=O)OCc1ccccc1
HOP-92 NSCLC
  TGI: > 100 µM
M14 melanoma
  TGI: > 100 µM
OVCAR-3 ovarian
  TGI: > 100 µM
SF-268 CNS
  TGI: > 100 µM
SK-MEL-2 melanoma
  TGI: > 100 µM
SK-MEL-28 melanoma
  TGI: > 100 µM
SW-620 colon
  TGI: > 100 µM

## NC(=NCCCOc1ccc(Cl)cc1)Nc1ccc(C(F)(F)F)cc1
HOP-92 NSCLC
  GI50: 0.849 µM
  TGI: 4.63 µM
HS 578T breast
  GI50: 3.35 µM
  TGI: 18.8 µM
M14 melanoma
  GI50: 1.69 µM
  TGI: 3.46 µM
OVCAR-3 ovarian
  GI50: 2.26 µM
  TGI: 6.14 µM
OVCAR-4 ovarian
  GI50: 2.15 µM
  TGI: 8.01 µM
SF-268 CNS
  GI50: 2.77 µM
  TGI: 15.9 µM
SK-MEL-2 melanoma
  GI50: 1.87 µM
  TGI: 3.88 µM
SW-620 colon
  GI50: 1.99 µM
  TGI: 5.99 µM

## CC(O)C(N=Cc1ccccc1[O-])C(=O)[O-].CC(O)C(N=Cc1ccccc1[O-])C(=O)[O-].[Co+2] (configuration not stated)
HOP-92 NSCLC
  GI50: 47.7 µM
  TGI: > 100 µM
M14 melanoma
  GI50: > 100 µM
  TGI: > 100 µM
OVCAR-3 ovarian
  GI50: > 100 µM
  TGI: > 100 µM
SF-268 CNS
  GI50: 29.9 µM
  TGI: > 100 µM
SK-MEL-2 melanoma
  GI50: > 100 µM
  TGI: > 100 µM
SK-MEL-28 melanoma
  GI50: 31.9 µM
  TGI: > 100 µM
SW-620 colon
  GI50: 78.2 µM
  TGI: > 100 µM

## O=[n+]1c2c(n([O-])c3ccccc31)CCCCCCCCCC2
HOP-92 NSCLC
  TGI: > 100 µM
M14 melanoma
  TGI: > 100 µM
OVCAR-3 ovarian
  TGI: > 100 µM
SF-268 CNS
  TGI: > 100 µM
SK-MEL-2 melanoma
  TGI: > 100 µM
SK-MEL-28 melanoma
  TGI: > 100 µM
SW-620 colon
  TGI: > 100 µM

## COc1ccc(NC(=O)CCc2cc(-c3ccc(O)c(OC)c3)nc(NC#N)n2)cc1
HOP-92 NSCLC
  TGI: > 100 µM
M14 melanoma
  TGI: > 100 µM
OVCAR-3 ovarian
  TGI: > 100 µM
OVCAR-4 ovarian
  TGI: > 100 µM
SF-268 CNS
  TGI: > 100 µM
SK-MEL-2 melanoma
  TGI: > 100 µM
SK-MEL-28 melanoma
  TGI: > 100 µM
SW-620 colon
  TGI: > 100 µM

## O=C(Nc1nc2ncn(CCI)c2c(=O)[nH]1)c1ccccc1
HOP-92 NSCLC
  TGI: 81 µM
M14 melanoma
  TGI: > 100 µM
OVCAR-3 ovarian
  TGI: > 100 µM
OVCAR-4 ovarian
  TGI: > 100 µM
SF-268 CNS
  TGI: 50.3 µM
SK-MEL-2 melanoma
  TGI: > 92.3 µM
SK-MEL-28 melanoma
  TGI: > 100 µM
SW-620 colon
  TGI: > 100 µM

## Clc1ccc2c(NCCCNc3nccc(Nc4ccc(Br)cc4)n3)ccnc2c1
HOP-92 NSCLC
  GI50: 1.32 µM
  TGI: 3.23 µM
M14 melanoma
  GI50: 1.71 µM
  TGI: 3.5 µM
MDA-MB-231 breast
  GI50: 1.79 µM
  TGI: 3.47 µM
OVCAR-3 ovarian
  GI50: 1.75 µM
  TGI: 3.23 µM
OVCAR-4 ovarian
  GI50: 1.39 µM
  TGI: 2.75 µM
SF-268 CNS
  GI50: 1.73 µM
  TGI: 3.32 µM
SK-MEL-2 melanoma
  GI50: 2.1 µM
  TGI: 3.67 µM
SK-MEL-28 melanoma
  GI50: 1.65 µM
  TGI: 3.15 µM
SW-620 colon
  GI50: 1.58 µM
  TGI: 3.3 µM

## CCOC(=O)Oc1c(OC)cc(C(=O)NC2CCc3cc(OC)c(OC)c(OC)c3-c3ccc(SC)c(=O)cc32)cc1OC (configuration not stated)
HOP-92 NSCLC
  TGI: 0.871 µM
M14 melanoma
  GI50: 0.0166 µM
  TGI: 10.7 µM
OVCAR-3 ovarian
  GI50: < 0.007 µM
OVCAR-4 ovarian
  GI50: 14.8 µM
  TGI: > 70 µM
SF-268 CNS
  GI50: 0.0174 µM
  TGI: 21.4 µM
SK-MEL-2 melanoma
  TGI: 0.0832 µM
SK-MEL-28 melanoma
  TGI: > 70 µM
SW-620 colon
  GI50: < 0.007 µM
  TGI: > 70 µM

## CC(SC(C)C(=O)N/N=C/c1cccc(Cl)c1)C(=O)N/N=C\c1cccc(Cl)c1 (configuration not stated)
HS 578T breast
  GI50: 5.62 µM
  TGI: 25.4 µM
M14 melanoma
  GI50: 14.1 µM
  TGI: 35.5 µM
MDA-MB-231 breast
  GI50: 5.87 µM
  TGI: 28.8 µM
OVCAR-3 ovarian
  GI50: 2.03 µM
  TGI: 3.81 µM
OVCAR-4 ovarian
  GI50: 1.63 µM
  TGI: 3.35 µM
SF-268 CNS
  GI50: 10.2 µM
  TGI: 35.5 µM
SK-MEL-2 melanoma
  GI50: 6.9 µM
  TGI: 25.3 µM
SK-MEL-28 melanoma
  GI50: 15.2 µM
  TGI: 34.4 µM
SW-620 colon
  GI50: 2.6 µM
  TGI: 6.65 µM

## CNC(=S)NC1CCCCC1NC(=S)NC (configuration not stated)
HOP-92 NSCLC
  TGI: > 100 µM
M14 melanoma
  TGI: > 100 µM
OVCAR-3 ovarian
  TGI: > 100 µM
OVCAR-4 ovarian
  TGI: > 100 µM
SF-268 CNS
  TGI: > 100 µM
SK-MEL-2 melanoma
  TGI: > 100 µM
SK-MEL-28 melanoma
  TGI: > 100 µM
SW-620 colon
  TGI: > 100 µM

## Cc1cc(Br)cc(C)c1NC(=O)C(=O)C(C(=O)c1ccc2ccccc2c1)C1OC(=O)c2ccccc21 (configuration not stated)
HOP-92 NSCLC
  TGI: 6.9 µM
M14 melanoma
  TGI: 30.2 µM
OVCAR-3 ovarian
  TGI: > 64.8 µM
OVCAR-4 ovarian
  TGI: > 36.4 µM
SK-MEL-2 melanoma
  TGI: 34.5 µM
SK-MEL-28 melanoma
  TGI: 14.2 µM
SW-620 colon
  TGI: 28.1 µM

## C=CC1CC12C(=O)C1OC2(C)C2C(=O)c3cc4ccccc4cc3C(=O)C12 (configuration not stated)
HOP-92 NSCLC
  GI50: 20.9 µM
  TGI: 95.3 µM
HS 578T breast
  GI50: 27 µM
  TGI: 92 µM
M14 melanoma
  GI50: 37.8 µM
  TGI: > 100 µM
MDA-MB-231 breast
  GI50: 16 µM
  TGI: 46.4 µM
SF-268 CNS
  GI50: 26.7 µM
  TGI: > 100 µM
SK-MEL-2 melanoma
  GI50: 45.8 µM
  TGI: > 100 µM
SK-MEL-28 melanoma
  GI50: 24.7 µM
  TGI: > 100 µM

## COC(=O)C12C3C4C1C1C2C3C41C(=O)OC(C)(C)C (configuration not stated)
HOP-92 NSCLC
  TGI: > 100 µM
M14 melanoma
  TGI: > 100 µM
OVCAR-3 ovarian
  TGI: > 100 µM
OVCAR-4 ovarian
  TGI: > 100 µM
SF-268 CNS
  TGI: > 100 µM
SK-MEL-2 melanoma
  TGI: > 100 µM
SK-MEL-28 melanoma
  TGI: > 100 µM
SW-620 colon
  TGI: > 75 µM

## O=C1CCCC/C(=C/c2ccccc2)N1
HOP-92 NSCLC
  TGI: > 100 µM
M14 melanoma
  TGI: > 100 µM
OVCAR-3 ovarian
  TGI: > 100 µM
OVCAR-4 ovarian
  TGI: > 100 µM
SF-268 CNS
  TGI: > 100 µM
SK-MEL-2 melanoma
  TGI: > 100 µM
SK-MEL-28 melanoma
  TGI: > 100 µM
SW-620 colon
  TGI: > 100 µM

## O=C(O/N=C1/CCCC/C1=C\c1ccccc1)c1ccccc1
HOP-92 NSCLC
  TGI: > 100 µM
M14 melanoma
  TGI: > 100 µM
OVCAR-3 ovarian
  TGI: > 100 µM
SF-268 CNS
  TGI: > 100 µM
SK-MEL-2 melanoma
  TGI: > 100 µM
SK-MEL-28 melanoma
  TGI: > 100 µM
SW-620 colon
  TGI: > 100 µM

## CC(C)(C)[SiH]12(OC(C(F)(F)F)(C(F)(F)F)c3ccccc31)OC(C(F)(F)F)(C(F)(F)F)c1ccccc12
M14 melanoma
  TGI: 12.7 µM
OVCAR-3 ovarian
  TGI: 16.6 µM
OVCAR-4 ovarian
  TGI: 19.7 µM
SK-MEL-2 melanoma
  TGI: 31.1 µM
SK-MEL-28 melanoma
  TGI: 28.4 µM
SW-620 colon
  TGI: 18.1 µM

## CC(C)=C[C@@H]1C[C@H](C)[C@H]2CC[C@H](C)C3=C2[C@](O)(OC3=O)[C@]1(C)O
HS 578T breast
  GI50: > 100 µM
  TGI: > 100 µM
M14 melanoma
  GI50: > 100 µM
  TGI: > 100 µM
MDA-MB-231 breast
  GI50: > 100 µM
  TGI: > 100 µM
OVCAR-3 ovarian
  GI50: > 100 µM
  TGI: > 100 µM
OVCAR-4 ovarian
  GI50: > 100 µM
  TGI: > 100 µM
SF-268 CNS
  TGI: > 100 µM
SK-MEL-2 melanoma
  GI50: > 100 µM
  TGI: > 100 µM
SK-MEL-28 melanoma
  GI50: > 100 µM
  TGI: > 100 µM
SW-620 colon
  GI50: > 100 µM
  TGI: > 100 µM

## S=C(N/N=C/c1ccco1)NC12CC3CC(CC(C3)C1)C2
HOP-92 NSCLC
  TGI: > 100 µM
M14 melanoma
  TGI: > 100 µM
OVCAR-3 ovarian
  TGI: > 100 µM
OVCAR-4 ovarian
  TGI: > 100 µM
SF-268 CNS
  TGI: > 100 µM
SK-MEL-2 melanoma
  TGI: > 100 µM
SK-MEL-28 melanoma
  TGI: > 100 µM
SW-620 colon
  TGI: > 100 µM
